We go through 2 molecules from patent US8304236B2, “Modified biotin-binding protein” (Japan Tobacco Inc., priority 2008, dated 2012).

Experiment [1] deals with tamavidin 2 (TM2) variant TM2 K33TK37AR104E, SEQ ID NO: 14 (Pleurotus cornucopiae, UniProt B9A0T7, K33T/K37A/R104E). Kind of experiment: Biacore 3000 biotin-binding test of low-pI TM2 (Example 1). Particulars: BSA-LCLC-Biotin (30.5 Å) immobilized; 25° C. The procedure: (§1) HBS-EP (Biacore) was used as a running buffer, and each low-pI TM2 (40 μL) was injected at 25° C. and a flow rate of 20 μL/min for 2 minutes.
(§2) From the resulting sensorgrams, the binding rate constant (ka), the dissociation rate constant (kd), and the dissociation constant (KD) were calculated using an analysis software, BIAevaluation version 4.1.

Experiment [2] deals with T1, tamavidin 2 (TM2), wild type, SEQ ID NO: 2, Pleurotus cornucopiae (Pleurotus cornucopiae, UniProt B9A0T7).
T1 sequence (B9A0T7 1-141): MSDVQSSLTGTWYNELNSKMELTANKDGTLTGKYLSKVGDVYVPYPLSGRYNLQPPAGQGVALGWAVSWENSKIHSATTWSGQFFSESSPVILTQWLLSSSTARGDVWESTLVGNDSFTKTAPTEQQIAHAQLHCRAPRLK
The experiment is described as above. The following applies: 25° C. The procedure:
as §1, §2

Experiment [3] deals with tamavidin 2 (TM2) variant TM2 R104E, SEQ ID NO: 8 (Pleurotus cornucopiae, UniProt B9A0T7, R104E). The description is as above. The following applies: BSA-LCLC-Biotin (30.5 Å) immobilized; 25° C. As for the experimental part:
(3) a TM2 mutant in which arginine at position 104 was replaced with glutamic acid (hereinafter referred to as “TM2 R104E; its nucleotide sequence is listed in SEQ ID NO: 7, and the amino acid sequence in SEQ ID NO: 8);
as §1, §2

The target in experiment [4] is tamavidin 2 (TM2) variant TM2 K141E, SEQ ID NO: 10 (Pleurotus cornucopiae, UniProt B9A0T7, K141E). The description is as above. The following applies: BSA-LCLC-Biotin (30.5 Å) immobilized; 25° C. As for the experimental part: (4) a TM2 mutant in which lysine at position 141 was replaced with glutamic acid (hereinafter referred to as “TM2 K141E; its nucleotide sequence is listed in SEQ ID NO: 9, and the amino acid sequence in SEQ ID NO: 10);
as §1, §2

For experiment [5], the target named is tamavidin 2 (TM2) variant TM2 K33TK37A, SEQ ID NO: 12 (Pleurotus cornucopiae, UniProt B9A0T7, K33T/K37A). Described as above. Particulars: BSA-LCLC-Biotin (30.5 Å) immobilized; 25° C. The procedure:
(5) a TM2 mutant in which lysine at position 33 was replaced with threonine, and lysine at position 37 was replaced with alanine (hereinafter referred to as “TM2 K33TK37A”; its nucleotide sequence is listed in SEQ ID NO: 11, and the amino acid sequence in SEQ ID NO: 12);
as §1, §2

In experiment [6] the target is tamavidin 2 (TM2) variant TM2 K26A, SEQ ID NO: 4 (Pleurotus cornucopiae, UniProt B9A0T7, K26A). The experiment is described as above. Particulars: SA-LC-Biotin (22.4 Å) immobilized; 25° C. As for the experimental part:
(1) a TM2 mutant in which lysine at position 26 was replaced with alanine (hereinafter referred to as “TM2 K26A”; its nucleotide sequence is listed in SEQ ID NO: 3 and the amino acid sequence in SEQ ID NO: 4);
as §1, §2

The target of experiment [7] is tamavidin 2 (TM2) variant TM2 K73Q, SEQ ID NO: 6 (Pleurotus cornucopiae, UniProt B9A0T7, K73Q). Described as above. Particulars: SA-LC-Biotin (22.4 Å) immobilized; 25° C. As for the experimental part:
(2) a TM2 mutant in which lysine at position 73 was replaced with glutamine (hereinafter referred to as “TM2 K73Q”; its nucleotide sequence is listed in SEQ ID NO: 5, and the amino acid sequence in SEQ ID NO: 6);
as §1, §2

Experiment [8] deals with tamavidin 2 (TM2) variant TM2 R104EK141E, SEQ ID NO: 16 (Pleurotus cornucopiae, UniProt B9A0T7, K141E/R104E). Described as above. Particulars: SA-LC-Biotin (22.4 Å) immobilized; 25° C. The procedure:
(7) a TM2 mutant in which arginine at position 104 was replaced with glutamic acid, and lysine at position 141 was replaced with glutamic acid (hereinafter referred to as “TM2 R104EK141E”; its nucleotide sequence is listed in SEQ ID NO: 15, and the amino acid sequence in SEQ ID NO: 16).
as §1, §2

Experiment [9] relates to tamavidin 2 (TM2) variant TM2 D40N, SEQ ID NO: 20. Kind of experiment: Biacore 3000 biotin-binding test (Example 2). Particulars: Biotin-LC-BSA. Further details: species or system Pleurotus cornucopiae. As for the experimental part: As described above, a TM2 mutant in which aspartic acid at position 40 was replaced with asparagine (hereinafter referred to as “TM2 D40N”; its nucleotide sequence SEQ ID NO: 19, and the amino acid sequence in SEQ ID NO: 20) was constructed.
The solution was put into a dialysis tube (MWCO 6-8,000) and was dialyzed with 50 mM sodium carbonate (pH 6.7) at 4° C. overnight.
The amount for immobilization was adjusted to about 200 RU.
Accordingly, seven step measurement (3.125, 6.25, […], 25, 50, 100, and 200 nM) was conducted from the lowest concentration, without recycling steps. […] The measurement was performed at 25° C. The resulting sensorgrams were subjected to reaction kinetics analysis using analysis software BIAevaluation ver. 4.1 with a 1:1 binding model to calculate the binding rate constant (ka) and the dissociation rate constant (kd). The dissociation constant (KD) was determined from kd/ka. In the case where no recycling step is employed, the Rmax (maximum amount of binding analyte) decreases at each measurement. Accordingly, in the analysis, the Rmax was calculated by conducting local fitting for each concentration, and only the data of analyte concentrations that were approximated to the 1:1 binding model was employed.

Experiment [10] has as its target T1, tamavidin 2 (TM2), wild type, SEQ ID NO: 2, Pleurotus cornucopiae. In words: Biacore 3000 biotin binding test (Example 3). Particulars: Biotin-BSA (22.4 Å) immobilized. The procedure: TM2 and HALU TM2 used as analytes were prepared by purification with 2-iminobiotin agarose in accordance with a common method and dialysis with 20MM KPi (pH 7) overnight. The analytes were each adjusted to about 50 μg/mL in 10 mM acetate buffer (pH 5, Biacore).
The immobilization of the ligand and measurement and analysis of specific interaction with the analytes were conducted as in paragraph 2-7-2).

Experiment [11] has the same target. Particulars: WO2008/081938 A1; cited from earlier work.
The test system of experiment [12] is streptavidin. Particulars: similarly measured; WO2008/081938 A1; cited from earlier work.
In experiment [13] the target is T1, tamavidin 2 (TM2), wild type, SEQ ID NO: 2, Pleurotus cornucopiae. Kind of experiment: Biacore 3000 iminobiotin binding test (Example 2). Particulars: Iminobiotin-BSA analyte, protein immobilized, pH 11, 25° C. As for the experimental part:
These samples were diluted with 10 mM acetate buffer (pH 5, Biacore) into about 50 μg/mL.
Immobilization was performed at 25° C. and a flow rate of 10 μL/min using HBS-EP (Biacore) as a running buffer. The TM2 and the TM2 mutant (about 4000 to 8000 RU) were immobilized on CM5 sensor chips (Biacore) by amine coupling. The activating time was set to 10 minutes.
The specific interaction was measured using iminobiotin BSA as an analyte (a material flowing in a flow channel) at 25° C. and a flow rate of 20 μL/min and using a CAPS buffer (50 mM CAPS, 150 mM NaCl, 0.005% Tween 20, pH 11) as the running buffer. Iminobiotin BSA was produced as follows: A highly purified BSA (Sigma, 2 mg) and NHS-iminobiotin (Pierce, 1 mg) were dissolved in 50 mM sodium borate (pH 8.0, 1 mL), followed by incubation at 4° C. for 2 hours. […] Subsequently, the iminobiotin-BSA produced by the process described above was similarly measured with the same flow cell.
Each constant of samples showing interaction was calculated using analysis software BIAevaluation ver. […] The dissociation constant (KD) was determined from kd/ka. […] Accordingly, in the analysis, the Rmax was calculated by conducting local fitting for each concentration, and only the results at concentrations (mainly 18.75 to 75 nM) approximated to the 1:1 (Langmuir) binding model were employed.

Read-outs that look alike come from different tables or passages of the source.

tamavidin 2 (TM2) variant TM2 K33TK37AR104E, SEQ ID NO: 14, sequence (B9A0T7 entry or part of it K33T/K37A/R104E): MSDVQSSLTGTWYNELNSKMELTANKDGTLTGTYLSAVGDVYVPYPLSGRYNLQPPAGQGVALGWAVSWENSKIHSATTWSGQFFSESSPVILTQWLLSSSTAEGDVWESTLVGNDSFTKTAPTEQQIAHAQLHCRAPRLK
tamavidin 2 (TM2) variant TM2 R104E, SEQ ID NO: 8, sequence (B9A0T7 entry or part of it R104E): as the sequence (B9A0T7 entry or part of it K33T/K37A/R104E) above, with T33K, A37K counted along it
tamavidin 2 (TM2) variant TM2 R104EK141E, SEQ ID NO: 16, sequence (B9A0T7 entry or part of it R104E/K141E): as the sequence (B9A0T7 entry or part of it K33T/K37A/R104E) above, with T33K, A37K, K141E counted along it
tamavidin 2 (TM2) variant TM2 K141E, SEQ ID NO: 10, sequence (B9A0T7 entry or part of it K141E): as the sequence (B9A0T7 entry or part of it K33T/K37A/R104E) above, with T33K, A37K, E104R, K141E counted along it
tamavidin 2 (TM2) variant TM2 K26A, SEQ ID NO: 4, sequence (B9A0T7 entry or part of it K26A): as the sequence (B9A0T7 entry or part of it K33T/K37A/R104E) above, with K26A, T33K, A37K, E104R counted along it
tamavidin 2 (TM2) variant TM2 K73Q, SEQ ID NO: 6, sequence (B9A0T7 entry or part of it K73Q): as the sequence (B9A0T7 entry or part of it K33T/K37A/R104E) above, with T33K, A37K, K73Q, E104R counted along it
tamavidin 2 (TM2) variant TM2 K33TK37A, SEQ ID NO: 12, sequence (B9A0T7 entry or part of it K33T/K37A): as the sequence (B9A0T7 entry or part of it K33T/K37A/R104E) above, with E104R counted along it

Consider `O=C(O)CCCC[C@@H]1SC[C@@H]2NC(=O)N[C@@H]21` [biotin, D-[(+)-cis-hexahydro-2-oxo-1H-thieno-(3,4)-imidazole-4-valerate]], for which the “binding rate constant (ka)” value in experiment [1] is listed as 6.3 × 10^5; in [2] (BSA-LCLC-Biotin (30.5 Å) immobilized), 9.2 × 10^5; in experiment [2] (SA-LC-Biotin (22.4 Å) immobilized), 9.9 × 10^5; in experiment [3] it was 5.8 × 10^5; in [4] it was 5.8 × 10^5; in [5], 2.5 × 10^5. Further, the “binding rate constant (ka)” value is 5.0 × 10^5 in experiment [6]; 5.9 × 10^5 in experiment [7]; 1.2 × 10^6 in [8]; 9.9 × 10^5 in experiment [10]; 919000 M⁻¹ s⁻¹ in experiment [11]; 2.28e+06 M⁻¹ s⁻¹ in experiment [12]. For the same molecule, the “change of binding rate constant (ka) compared to TM2” value in experiment [9] is on record as “increased”. Also, the “change of dissociation rate constant (kd) compared to TM2” value in experiment [9] is “decreased”. In addition, the “dissociation rate constant (kd)” value in [11] is 6.83e-06 s⁻¹; in experiment [12] it was 2.52e-06 s⁻¹.
As for `N=C1N[C@H]2[C@H](CS[C@H]2CCCCC(=O)O)N1` [iminobiotin], the kon in experiment [13] (read-out: binding rate constant (ka)) stood at 130000 ± 5e+09 M⁻¹ s⁻¹. In addition, the koff in [13] (read-out: dissociation rate constant (kd)) is 0.0013 ± 6e-07 s⁻¹.
